Tested on: co-culture cell-line model of intestinal epithelial cells containing Caco-2 and HT29-MTX cells
Assay: Direct effect of 3-hydroxybutyric acid on inflammation-induced epithelial barrier dysfunction (FD4 translocation)
Type: cell-based, human
Conditions: 10 μM apical, 36 hours pre-treatment, then TNF-α (2.5 ng/ml) and IFN-γ (10 ng/ml) for 48 hours
Experimental: The human Caco-2 and HT29-MTX cell lines were obtained from the American Type Culture Collection (ATCC) and the European Collection of Authenticated Cell Cultures (ECACC), respectively. Caco-2 cell and HT29-MTX were maintained separately in culture flasks at 37° C. under humidified 10% CO2 atmosphere in Dulbecco's […] (DMEM) supplemented with GlutaMAX (Invitrogen), 1% […], 100 μg/ml streptomycin, 100 UI/ml penicillin and heat inactivated fetal bovine serum (FBS; 15% for Caco-2 and 10% for HT29-MTX). To make co-culture for epithelial barrier studies, each cell lines were expanded in their respective flasks until 90% confluent monolayers were reached. Cell lines are then trypsinized with 1× trypsin. Co-culture of Caco-2 and HT29-MTX were seeded at 6×10^4/cm^2 on 1.12 cm^2 Transwell Polycarbonate semi-permeable membranes (0.4 μm) and grown in DMEM supplemented with GlutaMAX, 1% minimum essential media, 100 μg/ml streptomycin, 100 UI/ml penicillin and 10% heat inactivated FBS for 21 days. […] At the end of the experiment, translocation of the FITC-labeled dextran (4000 Da) from the apical to basolateral compartment was quantified within a 2-hour period. FD4 translocation data were analysed by using the two-sided two-sample Student t-test assuming unequal variances.

## CC(O)CC(=O)O (stereo not shown) [3-hydroxybutyric acid]
  Epithelial barrier intactness: translocation of FITC-labeled dextran (FD4) from apical to basolateral compartment relative to control +ve (FIG. 6): protect the barrier against inflammation-induced epithelial barrier hyperpermeability

— patent US20230225999A1, “A NUTRITIONAL COMPOSITION COMPRISING 3-HYDROXYBUTYRIC ACID TO IMPROVE THE GASTROINTESTINAL BARRIER” (priority 2020, published 2023)
